{
  "source": "ChEMBL document CHEMBL4387741",
  "about": "“Optimization of novel reversible Bruton's tyrosine kinase inhibitors identified using Tethering-fragment-based screens” (Bioorg Med Chem, 2019)",
  "key": {"[1]": {"system": "Tyrosine-protein kinase ABL1 (Homo sapiens), P00519 [Q252H]", "experiment": "Inhibition of human phosphorylated ABL1 Q252H mutant expressed in mammalian expression system at 1 uM by Kinomescan method relative to control"}, "[2]": {"target": "Calcium/calmodulin-dependent protein kinase kinase 2 (Homo sapiens) (UniProt Q96RR4)", "sequence (Q96RR4 2-588 limits assumed)": "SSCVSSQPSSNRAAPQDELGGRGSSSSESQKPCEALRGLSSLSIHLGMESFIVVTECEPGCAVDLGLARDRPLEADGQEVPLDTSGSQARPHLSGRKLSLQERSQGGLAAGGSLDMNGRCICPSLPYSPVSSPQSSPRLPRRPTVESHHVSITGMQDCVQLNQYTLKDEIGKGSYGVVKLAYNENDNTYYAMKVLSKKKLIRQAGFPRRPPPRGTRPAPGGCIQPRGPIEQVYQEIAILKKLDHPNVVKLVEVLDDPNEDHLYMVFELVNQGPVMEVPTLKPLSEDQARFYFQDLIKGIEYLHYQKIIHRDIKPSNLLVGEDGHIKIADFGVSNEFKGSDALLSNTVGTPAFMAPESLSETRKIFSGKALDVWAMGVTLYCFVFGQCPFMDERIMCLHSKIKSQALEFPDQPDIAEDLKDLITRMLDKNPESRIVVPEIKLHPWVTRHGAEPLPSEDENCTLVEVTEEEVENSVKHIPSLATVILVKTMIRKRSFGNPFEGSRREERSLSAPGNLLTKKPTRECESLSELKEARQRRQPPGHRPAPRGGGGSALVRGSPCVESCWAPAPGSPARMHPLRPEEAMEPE", "experiment": "Inhibition of wild-type human partial length CAMKK2 (D65 to V471 residues) expressed in bacterial expression system at 1 uM by Kinomescan method relative to control"}, "[3]": {"system": "Epidermal growth factor receptor (Homo sapiens), P00533 [L858R,T790M]", "experiment": "Inhibition of human partial length EGFR L858R/T790M double mutant (R669 to V1011 residues) expressed in mammalian expression system at 1 uM by Kinomescan method relative to control"}, "[4]": {"target": "Ephrin type-A receptor 1 (Homo sapiens) (UniProt P21709)", "experiment": "Inhibition of wild-type human partial length EPHA1 (V588 to I913 residues) expressed in bacterial expression system at 1 uM by Kinomescan method relative to control"}, "[5]": {"target": "Receptor-type tyrosine-protein kinase FLT3 (Homo sapiens) (UniProt P36888)", "experiment": "Inhibition of wild-type human partial length FLT3 (V592 to Y969 residues) expressed in bacterial expression system at 1 uM by Kinomescan method relative to control"}, "[6]": {"target": "Myosin light chain kinase (Homo sapiens) (UniProt Q32MK0)", "sequence (Q32MK0 whole entry, the tested form may be a part)": "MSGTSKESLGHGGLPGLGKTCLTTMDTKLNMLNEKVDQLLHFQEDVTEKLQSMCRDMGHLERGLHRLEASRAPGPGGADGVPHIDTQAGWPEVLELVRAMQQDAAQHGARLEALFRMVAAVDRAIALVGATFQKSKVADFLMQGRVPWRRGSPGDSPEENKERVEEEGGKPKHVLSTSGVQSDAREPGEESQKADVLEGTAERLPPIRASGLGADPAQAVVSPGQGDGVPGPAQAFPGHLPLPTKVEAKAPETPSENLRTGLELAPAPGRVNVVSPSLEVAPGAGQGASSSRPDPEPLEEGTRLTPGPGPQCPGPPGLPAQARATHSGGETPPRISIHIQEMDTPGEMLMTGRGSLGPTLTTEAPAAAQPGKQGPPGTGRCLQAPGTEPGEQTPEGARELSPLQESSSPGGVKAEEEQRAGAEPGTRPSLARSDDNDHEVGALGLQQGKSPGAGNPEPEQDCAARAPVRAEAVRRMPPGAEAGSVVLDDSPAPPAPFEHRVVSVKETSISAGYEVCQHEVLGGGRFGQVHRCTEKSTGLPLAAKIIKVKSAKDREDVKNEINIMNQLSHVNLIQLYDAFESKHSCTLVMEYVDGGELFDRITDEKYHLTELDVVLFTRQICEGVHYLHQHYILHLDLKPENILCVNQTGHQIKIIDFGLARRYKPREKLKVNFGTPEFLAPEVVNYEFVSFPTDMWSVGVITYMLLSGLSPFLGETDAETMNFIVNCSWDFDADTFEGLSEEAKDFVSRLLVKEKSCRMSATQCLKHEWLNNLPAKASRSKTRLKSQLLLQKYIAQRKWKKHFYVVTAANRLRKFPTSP", "experiment": "Inhibition of wild-type human partial length MLCK (D488 to K800 residues) expressed in bacterial expression system at 1 uM by Kinomescan method relative to control"}, "[7]": {"target": "Cyclin-dependent kinase 15 (Homo sapiens) (UniProt Q96Q40)", "experiment": "Inhibition of wild-type human full length PFTAIRE2 (M1 to W384 residues) expressed in bacterial expression system at 1 uM by Kinomescan method relative to control"}, "[8]": {"target": "Phosphatidylinositol 4,5-bisphosphate 3-kinase catalytic subunit alpha isoform (Homo sapiens) (UniProt P42336)", "experiment": "Inhibition of wild-type human partial length PIK3CA (R108 to N1068 residues) expressed in mammalian expression system at 1 uM by Kinomescan method relative to control"}, "[9]": {"target": "Phosphatidylinositol 4-kinase beta (Homo sapiens) (UniProt Q9UBF8)", "experiment": "Inhibition of wild-type human full length PIK4CB (M1 to M828 residues) expressed in mammalian expression system at 1 uM by Kinomescan method relative to control"}, "[10]": {"target": "Ribosomal protein S6 kinase alpha-1 (Homo sapiens) (UniProt Q15418)", "experiment": "Inhibition of wild-type human partial length C-terminal RSK1 kinase domain 2 (P360 to L681 residues) expressed in bacterial expression system at 1 uM by Kinomescan method relative to control"}, "[11]": {"target": "Ribosomal protein S6 kinase alpha-2 (Homo sapiens) (UniProt Q15349)", "sequence (Q15349 whole entry, the tested form may be a part)": "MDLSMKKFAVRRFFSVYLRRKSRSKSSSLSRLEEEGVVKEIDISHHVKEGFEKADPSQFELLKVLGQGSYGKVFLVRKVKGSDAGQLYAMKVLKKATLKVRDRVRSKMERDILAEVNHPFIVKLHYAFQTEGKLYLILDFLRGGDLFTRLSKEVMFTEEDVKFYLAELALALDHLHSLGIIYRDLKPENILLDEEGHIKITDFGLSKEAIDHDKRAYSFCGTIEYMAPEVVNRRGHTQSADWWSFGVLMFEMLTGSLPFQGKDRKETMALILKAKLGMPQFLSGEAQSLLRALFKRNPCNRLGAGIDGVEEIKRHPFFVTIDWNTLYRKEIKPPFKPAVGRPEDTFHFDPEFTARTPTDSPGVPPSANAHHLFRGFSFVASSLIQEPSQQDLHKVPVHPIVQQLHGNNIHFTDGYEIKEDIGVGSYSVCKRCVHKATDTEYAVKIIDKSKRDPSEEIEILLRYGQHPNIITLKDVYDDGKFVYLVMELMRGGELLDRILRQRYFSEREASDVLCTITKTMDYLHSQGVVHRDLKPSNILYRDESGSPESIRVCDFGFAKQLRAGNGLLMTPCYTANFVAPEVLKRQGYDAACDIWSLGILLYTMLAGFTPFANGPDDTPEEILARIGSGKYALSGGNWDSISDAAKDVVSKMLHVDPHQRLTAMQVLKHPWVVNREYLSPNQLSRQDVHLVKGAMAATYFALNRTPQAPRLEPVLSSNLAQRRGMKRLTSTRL", "experiment": "Inhibition of wild-type human partial length N-terminal RSK3 kinase domain 1 (M1 to Q385 residues) expressed in bacterial expression system at 1 uM by Kinomescan method relative to control"}, "[12]": {"target": "Serine/threonine-protein kinase TAO3 (Homo sapiens) (UniProt Q9H2K8)", "experiment": "Inhibition of wild-type human partial length TAOK3 (M1 to T316 residues) expressed in mammalian expression system at 1 uM by Kinomescan method relative to control"}, "[13]": {"target": "Angiopoietin-1 receptor (Homo sapiens) (UniProt Q02763)", "experiment": "Inhibition of wild-type human partial length TIE2 (N804 to T1112 residues) expressed in bacterial expression system at 1 uM by Kinomescan method relative to control"}, "[14]": {"target": "Activated CDC42 kinase 1 (Homo sapiens) (UniProt Q07912)", "sequence (Q07912 whole entry, looked up, the tested form may be a part)": "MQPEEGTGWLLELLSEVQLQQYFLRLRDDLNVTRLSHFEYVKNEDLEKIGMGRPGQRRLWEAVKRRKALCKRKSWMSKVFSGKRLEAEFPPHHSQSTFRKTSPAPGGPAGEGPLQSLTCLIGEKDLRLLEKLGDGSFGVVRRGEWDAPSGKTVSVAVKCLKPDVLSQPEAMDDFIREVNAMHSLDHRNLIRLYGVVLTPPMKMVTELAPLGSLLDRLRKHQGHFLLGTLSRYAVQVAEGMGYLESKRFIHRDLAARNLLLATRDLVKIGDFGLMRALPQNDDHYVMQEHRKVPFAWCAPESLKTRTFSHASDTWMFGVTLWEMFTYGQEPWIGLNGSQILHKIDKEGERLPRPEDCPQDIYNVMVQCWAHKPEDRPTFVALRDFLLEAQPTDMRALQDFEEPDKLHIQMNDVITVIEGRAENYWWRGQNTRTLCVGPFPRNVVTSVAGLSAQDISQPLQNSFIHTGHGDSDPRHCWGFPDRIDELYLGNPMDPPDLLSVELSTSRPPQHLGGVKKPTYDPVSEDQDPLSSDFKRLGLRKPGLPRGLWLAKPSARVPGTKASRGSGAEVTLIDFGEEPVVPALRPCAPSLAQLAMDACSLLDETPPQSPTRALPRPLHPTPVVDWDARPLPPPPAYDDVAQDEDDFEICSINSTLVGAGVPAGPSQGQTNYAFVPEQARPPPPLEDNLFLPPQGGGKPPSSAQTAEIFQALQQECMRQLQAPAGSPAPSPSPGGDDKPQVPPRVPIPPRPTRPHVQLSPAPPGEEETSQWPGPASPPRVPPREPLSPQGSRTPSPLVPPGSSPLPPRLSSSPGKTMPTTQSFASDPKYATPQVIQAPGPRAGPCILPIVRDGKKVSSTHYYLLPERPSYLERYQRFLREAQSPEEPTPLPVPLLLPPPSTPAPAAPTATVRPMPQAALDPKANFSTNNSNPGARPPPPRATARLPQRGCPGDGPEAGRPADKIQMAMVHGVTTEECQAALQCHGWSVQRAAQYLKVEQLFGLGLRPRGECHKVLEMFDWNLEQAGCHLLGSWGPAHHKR", "experiment": "Inhibition of wild-type human partial length TNK2 (S159 to D474 residues) expressed in bacterial expression system at 1 uM by Kinomescan method relative to control"}, "[15]": {"target": "High affinity nerve growth factor receptor (Homo sapiens) (UniProt P04629)", "experiment": "Inhibition of wild-type human partial length TRKA (G475 to G790 residues) expressed in mammalian expression system at 1 uM by Kinomescan method relative to control"}, "[16]": {"target": "Serine/threonine-protein kinase 25 (Homo sapiens) (UniProt O00506)", "sequence (O00506 whole entry, looked up, the tested form may be a part)": "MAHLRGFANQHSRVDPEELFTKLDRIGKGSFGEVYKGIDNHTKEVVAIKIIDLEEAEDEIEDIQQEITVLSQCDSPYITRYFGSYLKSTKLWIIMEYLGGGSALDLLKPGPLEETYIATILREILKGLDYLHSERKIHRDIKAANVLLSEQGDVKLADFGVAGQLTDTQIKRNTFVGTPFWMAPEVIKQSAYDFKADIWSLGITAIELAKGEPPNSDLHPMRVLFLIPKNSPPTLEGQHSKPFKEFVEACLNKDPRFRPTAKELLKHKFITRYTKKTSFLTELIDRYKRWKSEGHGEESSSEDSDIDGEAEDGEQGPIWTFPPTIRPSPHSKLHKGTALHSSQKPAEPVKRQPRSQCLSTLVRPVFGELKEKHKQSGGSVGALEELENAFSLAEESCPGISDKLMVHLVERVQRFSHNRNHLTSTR", "experiment": "Inhibition of wild-type human partial length YSK1 (V14 to H295 residues) expressed in bacterial expression system at 1 uM by Kinomescan method relative to control"}, "[17]": {"target": "Ankyrin repeat and protein kinase domain-containing protein 1 (Homo sapiens) (UniProt Q8NFD2)", "experiment": "Inhibition of wild-type human partial length ANKK1 (M1 to A305 residues) expressed in mammalian expression system at 10 uM by Kinomescan method relative to control"}, "[18]": {"target": "Mitogen-activated protein kinase kinase kinase 6 (Homo sapiens) (UniProt O95382)", "experiment": "Inhibition of wild-type human partial length ASK2 (M278 to R972 residues) expressed in mammalian expression system at 10 uM by Kinomescan method relative to control"}, "[19]": {"target": "Bone morphogenetic protein receptor type-1A (Homo sapiens) (UniProt P36894)", "experiment": "Inhibition of wild-type human partial length BMPR1A (Q214 to I532 residues) expressed in bacterial expression system at 10 uM by Kinomescan method relative to control"}, "[20]": {"target": "Macrophage colony-stimulating factor 1 receptor (Homo sapiens) (UniProt P07333)", "experiment": "Inhibition of wild-type human partial length CSF1R (I564 to S939 residues) expressed in bacterial expression system at 10 uM by Kinomescan method relative to control"}, "[21]": {"target": "Serine/threonine-protein kinase MRCK gamma (Homo sapiens) (UniProt Q6DT37)", "experiment": "Inhibition of wild-type human partial length DMPK2 (S46 to S408 residues) expressed in bacterial expression system at 10 uM by Kinomescan method relative to control"}, "[22]": {"target": "Ephrin type-B receptor 6 (Homo sapiens) (UniProt O15197)", "sequence (O15197 whole entry, the tested form may be a part)": "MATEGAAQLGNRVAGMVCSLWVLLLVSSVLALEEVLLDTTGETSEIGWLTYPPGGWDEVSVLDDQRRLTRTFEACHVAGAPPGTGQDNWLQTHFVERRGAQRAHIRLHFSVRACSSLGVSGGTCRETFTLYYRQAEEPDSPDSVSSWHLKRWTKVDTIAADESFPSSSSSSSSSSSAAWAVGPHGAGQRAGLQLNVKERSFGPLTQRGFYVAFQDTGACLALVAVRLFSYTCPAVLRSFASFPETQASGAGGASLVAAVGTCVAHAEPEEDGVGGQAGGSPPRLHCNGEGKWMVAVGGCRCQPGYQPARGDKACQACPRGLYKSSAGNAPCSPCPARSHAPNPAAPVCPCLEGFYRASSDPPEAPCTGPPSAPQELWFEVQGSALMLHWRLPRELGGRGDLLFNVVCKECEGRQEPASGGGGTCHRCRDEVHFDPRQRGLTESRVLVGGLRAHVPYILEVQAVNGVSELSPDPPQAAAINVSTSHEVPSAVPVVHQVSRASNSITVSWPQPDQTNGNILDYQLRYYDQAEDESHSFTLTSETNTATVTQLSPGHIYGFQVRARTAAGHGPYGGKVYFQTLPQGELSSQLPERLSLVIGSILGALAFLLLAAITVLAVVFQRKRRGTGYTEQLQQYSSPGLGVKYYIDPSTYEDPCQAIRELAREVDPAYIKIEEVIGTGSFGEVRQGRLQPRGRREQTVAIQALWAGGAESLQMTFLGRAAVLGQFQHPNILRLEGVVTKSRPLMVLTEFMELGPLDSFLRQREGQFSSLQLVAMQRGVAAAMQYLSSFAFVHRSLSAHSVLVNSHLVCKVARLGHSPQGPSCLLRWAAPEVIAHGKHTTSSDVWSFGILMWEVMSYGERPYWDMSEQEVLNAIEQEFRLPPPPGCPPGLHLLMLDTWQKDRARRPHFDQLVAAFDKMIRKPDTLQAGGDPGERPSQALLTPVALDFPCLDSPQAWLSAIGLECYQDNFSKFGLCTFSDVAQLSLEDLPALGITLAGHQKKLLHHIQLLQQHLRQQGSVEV", "experiment": "Inhibition of wild-type human partial length EPHB6 (Q634 to P948 residues) expressed in mammalian expression system at 10 uM by Kinomescan method relative to control"}, "[23]": {"target": "Homeodomain-interacting protein kinase 1 (Homo sapiens) (UniProt Q86Z02)", "experiment": "Inhibition of wild-type human partial length HIPK1 (M146 to I555 residues) expressed in mammalian expression system at 10 uM by Kinomescan method relative to control"}, "[24]": {"target": "Serine/threonine-protein kinase Nek7 (Homo sapiens) (UniProt Q8TDX7)", "sequence (Q8TDX7 whole entry, looked up, the tested form may be a part)": "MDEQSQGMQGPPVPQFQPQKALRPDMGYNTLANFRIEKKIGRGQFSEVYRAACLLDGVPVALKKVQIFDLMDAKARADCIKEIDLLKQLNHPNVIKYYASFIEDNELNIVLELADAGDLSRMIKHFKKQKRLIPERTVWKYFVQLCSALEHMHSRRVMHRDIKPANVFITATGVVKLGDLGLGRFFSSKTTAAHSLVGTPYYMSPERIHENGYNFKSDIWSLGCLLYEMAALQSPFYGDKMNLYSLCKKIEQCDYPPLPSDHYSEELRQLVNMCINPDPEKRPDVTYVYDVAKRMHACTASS", "experiment": "Inhibition of wild-type human full length NEK7 (M1 to S302 residues) expressed in bacterial expression system at 10 uM by Kinomescan method relative to control"}, "[25]": {"system": "Phosphatidylinositol 4,5-bisphosphate 3-kinase catalytic subunit alpha isoform (Homo sapiens), P42336 [H1047L]", "experiment": "Inhibition of human partial length PIK3CA H1047L mutant (R108 to N1068 residues) expressed in mammalian expression system at 10 uM by Kinomescan method relative to control"}, "[26]": {"target": "Rho-associated protein kinase 2 (Homo sapiens) (UniProt O75116)", "experiment": "Inhibition of wild-type human partial length ROCK2 (M1 to T431 residues) expressed in mammalian expression system at 10 uM by Kinomescan method relative to control"}},
  "data": [
    {"smiles": "O=C(Nc1cccc([C@@H]2CN(c3ncnc4[nH]ccc34)CCN2CCO)c1)Nc1c(F)cccc1N1CCCC1", "values": [
      {"measurement": "inhibition", "setting": "[1]", "result": 95, "unit": "%"},
      {"measurement": "inhibition", "setting": "[2]", "result": 94, "unit": "%"},
      {"measurement": "inhibition", "setting": "[3]", "result": 97, "unit": "%"},
      {"measurement": "inhibition", "setting": "[4]", "result": 100, "unit": "%"},
      {"measurement": "inhibition", "setting": "[5]", "result": 52, "unit": "%"},
      {"measurement": "inhibition", "setting": "[6]", "result": 100, "unit": "%"},
      {"measurement": "inhibition", "setting": "[7]", "result": 91, "unit": "%"},
      {"measurement": "inhibition", "setting": "[8]", "result": 100, "unit": "%"},
      {"measurement": "inhibition", "setting": "[9]", "result": 100, "unit": "%"},
      {"measurement": "inhibition", "setting": "[10]", "result": 88, "unit": "%"},
      {"measurement": "inhibition", "setting": "[11]", "result": 88, "unit": "%"},
      {"measurement": "inhibition", "setting": "[12]", "result": 88, "unit": "%"},
      {"measurement": "inhibition", "setting": "[13]", "result": 99, "unit": "%"},
      {"measurement": "inhibition", "setting": "[14]", "result": 100, "unit": "%"},
      {"measurement": "inhibition", "setting": "[15]", "result": 56, "unit": "%"},
      {"measurement": "inhibition", "setting": "[16]", "result": 91, "unit": "%"}
    ]},
    {"smiles": "O=C(Nc1cccc([C@H]2CCCN(c3ncnc4[nH]ccc34)C2)c1)Nc1ccccc1N1CCCC1", "values": [
      {"measurement": "inhibition", "setting": "[17]", "result": 96, "unit": "%"},
      {"measurement": "inhibition", "setting": "[18]", "result": 73, "unit": "%"},
      {"measurement": "inhibition", "setting": "[19]", "result": 82, "unit": "%"},
      {"measurement": "inhibition", "setting": "[20]", "result": 20, "unit": "%"},
      {"measurement": "inhibition", "setting": "[21]", "result": 62, "unit": "%"},
      {"measurement": "inhibition", "setting": "[22]", "result": 8.6, "unit": "%"},
      {"measurement": "inhibition", "setting": "[23]", "result": 61, "unit": "%"},
      {"measurement": "inhibition", "setting": "[24]", "result": 72, "unit": "%"},
      {"measurement": "inhibition", "setting": "[25]", "result": 100, "unit": "%"},
      {"measurement": "inhibition", "setting": "[26]", "result": 49, "unit": "%"}
    ]}
  ]
}
